Test results as given in paper PMC3021692, “Synthesis and Pharmacological Evaluation of Novel Schiff Base Analogues of 3-(4-amino) Phenylimino) 5-fluoroindolin-2-one” (Journal of Young Pharmacists : JYP, 2010).
Entries after “also recorded” stand apart in the source; their conditions may differ.

Assays:
Type in all cases: in vivo
[1] = test system: carrageenan-induced paw edema in rats; assay: Anti-inflammatory activity, carrageenan-induced paw edema test; conditions: for Percent anti-inflammatory activity (percent inhibition of paw edema): mean ± SD (n = 6)
Method: (§1) The synthesized compounds were evaluated for analgesic, anti-inflammatory, and ulcerogenic index. […] The test compounds and the standard drugs were administered in the form of a suspension (1% carboxymethyl cellulose as a vehicle) by oral route for analgesic and anti-inflammatory but for ulcerogenicity studies by intraperitoneally as suspension in 10% v/v Tween-20. Each group consisted of six animals. The animals were procured from the C. L. Baid Metha College of pharmacy, Chennai, and were maintained in colony cages at 25 ±2°C, relative humidity of 45-55%, under a 12-h light and dark cycle; they were fed standard animal feed. All the animals were acclimatized for a week before use. The Institutional Animal Ethics Committee approved the protocol adopted for the experimentation of animals.
Anti-inflammatory activity was evaluated by carrageenan-induced paw edema test in rats.[15] Diclofenac sodium 10, 20 mg/kg was administered as a standard drug for comparison. The test compounds were administered at two dose levels (10 mg/kg, 20 mg/kg). The paw volumes were measured using the mercury displacement technique with the help of a plethysmograph (Model PLYAN; Buxco, USA) immediately before and 30 min, 1, 2, and 3 h after carrageenan injection. The percent inhibition of paw edema was calculated using the following formula.
Percent inhibition I = 100 1− (a−x) / (b−y)
Where x is the mean paw volume of rats before the administration of carrageenan and test compounds or reference compound (test group), a is the mean paw volume of rats after the administration of carrageenan in the test group (drug treated), b is the mean paw volume of rats after the administration of carrageenan in the control group, y is the mean paw volume of rats before the administration of carrageenan in the control group.

Wistar albino mice = assay: Analgesic activity, tail-flick technique; conditions: for Percent analgesic activity: mean ± SD (n = 6); for Analgesic activity (in words): tail-flick, structure-activity comparison within the series / vs diclofenac sodium
Method: as §1
The analgesic activity was performed by tail-flick technique using Wistar albino mice (25-35 g) of either sex selected by the random sampling technique.[1314] Diclofenac sodium at a dose level of 10 mg/kg and 20 mg/kg was administered orally as reference drug for comparison. The test compounds at two dose levels (10, 20 mg/kg) were administered orally. The reaction time was recorded at 30 min, 1, 2, and 3 h after the treatment, and cut-off time was 10 s. The percent analgesic activity (PAA) was calculated by the following formula, where T1 is the reaction time (s) before treatment, and T2 is the reaction time (s) after treatment.

[2] = test system: Albino rats of Wistar strain; assay: Evaluation of ulcerogenicity index (pylorus ligation); parameters: scale not given here; conditions: pylorus ligated on fourth day, mean ± SD (n = 6)
Method: The synthesized compounds were evaluated for analgesic, anti-inflammatory, and ulcerogenic index. […] The test compounds and the standard drugs were administered in the form of a suspension (1% carboxymethyl cellulose as a vehicle) by oral route for analgesic and anti-inflammatory but for ulcerogenicity studies by intraperitoneally as suspension in 10% v/v Tween-20. Each group consisted of six animals. The animals were procured from the C. L. Baid Metha College of pharmacy, Chennai, and were maintained in colony cages at 25 ±2°C, relative humidity of 45-55%, under a 12-h light and dark cycle; they were fed standard animal feed. All the animals were acclimatized for a week before use. The Institutional Animal Ethics Committee approved the protocol adopted for the experimentation of animals. Ulceration in rats was induced as described by Goyal et al. Albino rats of Wistar strain weighing 150-200 g of either sex were divided into various groups each of six animals.[16] Control group of animals was administered only with 10% v/v Tween 80 suspension intraperitonially. One group was administered with aspirin (German Remedies) intraperitoneally at a dose of 200 mg/kg once daily for 3 days. The remaining group of animals was administered with test compounds intraperitoneally at a dose of 20 mg/kg. On fourth day, Pylorus was ligated as per the method of Shay et al.[17] Animals were fasted for 36 h before the pylorus ligation procedure. Four hours after the ligation, animals were sacrificed. The stomach was removed and opened along with the greater curvature. Ulcer index was determined by the method of Ganguly and Bhatnagar.[18]

[3] = 10 mg/kg oral, 30 min after carrageenan
[4] = 10 mg/kg oral, 1 h after carrageenan
[5] = 10 mg/kg oral, 2 h after carrageenan
[6] = 10 mg/kg oral, 3 h after carrageenan
[7] = 20 mg/kg oral, 30 min after carrageenan
[8] = 20 mg/kg oral, 1 h after carrageenan
[9] = 20 mg/kg oral, 2 h after carrageenan
[10] = 20 mg/kg oral, 3 h after carrageenan
[11] = 10 mg/kg oral, 30 min after treatment
[12] = 10 mg/kg oral, 1 h after treatment
[13] = 10 mg/kg oral, 2 h after treatment
[14] = 10 mg/kg oral, 3 h after treatment
[15] = 20 mg/kg oral, 30 min after treatment
[16] = 20 mg/kg oral, 1 h after treatment
[17] = 20 mg/kg oral, 2 h after treatment
[18] = 20 mg/kg oral, 3 h after treatment
[19] = test compounds 20 mg/kg intraperitoneally

Row | SMILES | Percent anti-inflammatory activity (percent inhibition of paw edema) [1, 3] | Percent anti-inflammatory activity (percent inhibition of paw edema) [1, 4] | Percent anti-inflammatory activity (percent inhibition of paw edema) [1, 5] | Percent anti-inflammatory activity (percent inhibition of paw edema) [1, 6] | Percent anti-inflammatory activity (percent inhibition of paw edema) [1, 7] | Percent anti-inflammatory activity (percent inhibition of paw edema) [1, 8] | Percent anti-inflammatory activity (percent inhibition of paw edema) [1, 9] | Percent anti-inflammatory activity (percent inhibition of paw edema) [1, 10] | Percent analgesic activity (Wistar albino mice; [11]) | Percent analgesic activity (Wistar albino mice; [12]) | Percent analgesic activity (Wistar albino mice; [13]) | Percent analgesic activity (Wistar albino mice; [14]) | Percent analgesic activity (Wistar albino mice; [15]) | Percent analgesic activity (Wistar albino mice; [16]) | Percent analgesic activity (Wistar albino mice; [17]) | Percent analgesic activity (Wistar albino mice; [18]) | Analgesic activity (in words) (Wistar albino mice) | Ulcer index [2, 19] | also measured
1 | O=C1Nc2ccc(F)cc2C1=Nc1ccc(N=Cc2ccccc2)cc1 [Compound N6] | 37 ± 1.67 % | 42 ± 1.42 % | 49 ± 1.58 % | 36 ± 1.96 % | 46 ± 1.48 % | 55 ± 1.76 % | 59 ± 1.93 % | 38 ± 1.47 % | 37 ± 1.87 % | 46 ± 1.42 % | 49 ± 1.15 % | 36 ± 1.96 % | 49 ± 1.83 % | 54 ± 1.76 % | 59 ± 1.18 % | 43 ± 1.47 % | decreasing activity | 0.84 ± 1.78 | –
2 | O=C1Nc2ccc(F)cc2C1=Nc1ccc(N=C2CCCCC2)cc1 [Compound N4] | 38 ± 1.82 % | 50 ± 1.24 % | 55 ± 1.15 % | 35 ± 1.76 % | 45 ± 1.36 % | 56 ± 1.83 % | 60 ± 1.19 % | 44 ± 1.65 % | 48 ± 1.28 % | 52 ± 1.52 % | 54 ± 1.15 % | 35 ± 1.76 % | 55 ± 1.36 % | 57 ± 1.66 % | 59 ± 1.19 % | 44 ± 1.65 % | moderate decrease in activity | 0.89 ± 1.26 | –
3 | CCC(CC)=Nc1ccc(N=C2C(=O)Nc3ccc(F)cc32)cc1 [Compound N2] | 42 ± 1.25 % | 50 ± 1.38 % | 53 ± 1.15 % | 45 ± 1.68 % | 51 ± 1.44 % | 57 ± 1.72 % | 62 ± 1.26 % | 54 ± 1.67 % | 50 ± 1.25 % | 56 ± 1.32 % | 60 ± 1.15 % | 45 ± 1.68 % | 57 ± 1.44 % | 60 ± 1.90 % | 64 ± 1.26 % | 50 ± 1.67 % | – | 0.97 ± 1.53 | Anti-inflammatory activity compared to reference standard diclofenac sodium (in words) ([1]; carrageenan-induced paw edema in rats): equipotent
4 | CCC(C)=Nc1ccc(N=C2C(=O)Nc3ccc(F)cc32)cc1 [Compound N1] | 39 ± 1.25 % | 45 ± 1.32 % | 52 ± 1.15 % | 32 ± 1.96 % | 44 ± 1.36 % | 52 ± 1.96 % | 58 ± 1.32 % | 37 ± 1.45 % | 47 ± 1.25 % | 51 ± 1.32 % | 53 ± 1.15 % | 31 ± 1.96 % | 54 ± 1.36 % | 58 ± 1.96 % | 60 ± 1.16 % | 47 ± 1.45 % | – | 0.84 ± 1.43 | –
5 | O=C1Nc2ccc(F)cc2C1=Nc1ccc(N=Cc2ccc(O)cc2)cc1 [Compound N10] | 43 ± 1.55 % | 49 ± 1.72 % | 54 ± 1.52 % | 39 ± 1.92 % | 48 ± 1.56 % | 54 ± 1.65 % | 58 ± 1.16 % | 42 ± 1.43 % | 43 ± 1.55 % | 46 ± 1.72 % | 49 ± 1.52 % | 38 ± 1.92 % | 48 ± 1.56 % | 52 ± 1.96 % | 58 ± 1.16 % | 42 ± 1.43 % | – | 0.81 ± 1.18 | –
6 | COc1ccc(C=Nc2ccc(N=C3C(=O)Nc4ccc(F)cc43)cc2)cc1 [Compound N7] | 36 ± 1.74 % | 42 ± 1.72 % | 45 ± 1.55 % | 33 ± 1.69 % | 44 ± 1.76 % | 55 ± 1.78 % | 58 ± 1.66 % | 41 ± 1.48 % | 34 ± 1.74 % | 43 ± 1.72 % | 45 ± 1.45 % | 29 ± 1.69 % | 47 ± 1.96 % | 52 ± 1.67 % | 56 ± 1.36 % | 44 ± 1.48 % | decreasing activity; also recorded: further decrease of activity | 0.78 ± 1.19 | –
7 | CC(=O)Oc1ccccc1C(=O)O [Aspirin, aspirin, reference compound] | – | – | – | – | – | – | – | – | – | – | – | – | – | – | – | – | – | – | Ulcer index ([2]; aspirin 200 mg/kg intraperitoneally once daily for 3 days): 1.73 ± 0.39; Ulcer index ([2]; aspirin 200 mg/kg intraperitoneally once daily for 3 days, listed as aspirin): 1.73 ± 0.41
